The values that follow come from patent publication US20260191786A1, “SOLID DOSAGE FORMS WITH HIGH ACTIVE AGENT LOADING” (Lonza Sales AG, priority 2018, published 2026).

Common to all, as to assay type: physicochemical
Data set [1] in a line: pKa (base) of the active agent.
Data set [2] can be described thus: Crystalline and amorphous solubility of the active agent in SIF / gastric buffer.
A short description of data set [3]: Log P of the active agent. From the text:
Log P: The Log P value of an active agent is defined as the base 10 logarithm of the ratio of (1) the active agent concentration in an octanol phase to (2) the active agent concentration in a water phase when the two phases are in equilibrium with each other, is a widely accepted measure of lipophilicity. The Log P value may be measured experimentally or calculated using methods known in the art. The Log P value may be estimated experimentally by determining the ratio of the drug solubility in octanol to the drug solubility in water. When using a calculated value for the Log P value, the highest value calculated using any generally accepted method for calculating Log P is used.

Values after ≈ are worked out from the molar mass of the structure shown. Like-named read-outs stand apart in the source and are kept apart here.

`C#Cc1cccc(Nc2ncnc3cc(OCCOC)c(OCCOC)cc23)c1` [Erlotinib] displayed a pKa in data set [1] of 5.3. Besides, the solubility was roughly 380 µg/mL (≈ 966 µM) in data set [2] (0.5% SIF (simulated intestinal fluid), fassgf or other biorelevant, amorphous, 0.5% SIF, read-out: amorphous solubility in 0.5% SIF) and 182 µg/mL (≈ 463 µM) in data set [2] (gastric buffer (GB), simulated gastric fluid, thermodynamic from solid, crystalline, gastric buffer, read-out: crystalline solubility in gastric buffer (GB)). Besides, the “Log P” value in data set [3] stood at 2.8.
Take Posaconazole: in data set [1], the “pKa (base)” value amounted to 4.5. Besides, in data set [3], the “Log P” value came to 4.5.

In general, pKa refers to the negative logarithm of the acid dissociation constant. A low value points to a group that gives up its proton readily. A word on the solubility: it is how much of the substance goes into solution per volume. The Log P is the decadic logarithm of the partition coefficient of the neutral form, usually between octanol and water.
